Results published in article PMC9697349, “Mouse Pharmacokinetics and In Vitro Metabolism of SH-11037 and SH-11008, Synthetic Homoisoflavonoids for Retinal Neovascularization” (Pharmaceutics, 2022).

Key:
[1] = test system: hydrolysis of SH-11037 in mouse plasma; assay type: in vitro ADME; conditions: ICR, mouse, 1 min, 1 µM, pH 7.4
Procedure: (§1) Chemical inhibition assay was conducted in mouse, dog, and human plasma and mouse eye homogenate to identify the enzyme(s) involved in the hydrolysis of SH-11037. BW284c51 [16], DTNB [17], EPZ [18], and BNPP [19, 20] were used as selective inhibitors of acetylcholinesterase (AChE), paraoxonase 1 (PON1), butyrylcholinesterase (BchE), and carboxylesterase (CES), respectively. Mouse eyes (male ICR mouse, 8 weeks old) taken immediately after CO2 asphyxiation were homogenized by an electric tissue homogenizer (Tissue Master-125, Omni International, Kennesaw, GA, USA) in an equal amount of 0.1 M potassium phosphate buffer (pH 7.4) on ice. The resulting homogenate was then centrifuged at 3000× g for 20 min. The supernatant was stored at −80 °C until the experiment. DMSO stock solutions of the inhibitors (0.4, 4 and 40 mM) were mixed with plasma diluted 3-fold with 0.1 M phosphate buffer (pH 7.4) to a final volume of 160 μL and final inhibitor concentrations of 0.01, 0.1, and 1 mM. The supernatant of mouse eye homogenate was treated similarly with only BNPP as the inhibitor and a single inhibitor concentration of 1 mM. The resulting pre-incubation solutions were then incubated for 2 h at 37 °C in a shaking water bath. SH-11037 (40 μM) in 50 vol% aqueous CH3CN was mixed with the pre-incubation solutions to a final volume of 160 μL and a final concentration of 1 μM. The resulting solutions were then incubated at 37 °C in a shaking water bath. The incubations were terminated at selected times by adding 160 µL of ice-cold CH3CN containing glipizide (500 ng/mL) as the IS. The resulting mixture was vortexed, sonicated, and centrifuged at 3000× g for 20 min. Aliquots of the supernatant were subjected to LC-MS/MS analysis described below in Section 2.6.2.
(§2) The LC-MS/MS system consisted of Agilent 1290 Infinity HPLC system and Agilent 6530 Accurate-Mass Quadrupole Time-of-Flight (Q-TOF) mass spectrometer equipped with dual AJS ESI ion source (Agilent Technologies Korea, Seoul, Korea). Chromatographic separation was performed on an Agilent Eclipse Plus C18 column (2.1 × 100 mm, 3.5 μm) with a Phenomenex Security Guard C18 guard column (4 × 20 mm) maintained at 40 °C. The mobile phase consisted of 0.1% formic acid in deionized water (A) and 0.1% formic acid in CH3CN (B): 0~2 min 5% B, 2~7 min to 95% B, and 7~10 min 95% B. Total run time including a 5 min equilibration time was 15 min. The flow rate was 0.4 mL/min. The injection volume was 5 µL. The mass spectrometer was operated in a positive Auto MS/MS scan mode with a full scan mass range of m/z 100–1000, fragmentor voltage 150 V, and CE 30 eV, selecting the two most intense precursor ions for collision-induced dissociation. Putative metabolites were identified using Agilent Mass Hunter Metabolite ID software (ver.B.04.00) followed by manual interpretation of the spectral data. Chromatograms and mass spectra were extracted using Agilent Mass Hunter Qualitative Analysis software (ver. B.05.00).

[2] = assay type: in vitro ADME; conditions: male, ICR, mouse, 1 min, 1 µM, pH 7.4
Procedure: as §1, §2

[3] = test system: hydrolysis of SH-11037 in dog plasma; assay type: in vitro ADME; conditions: beagle, 2 h, 1 µM, pH 7.4
Procedure: as §1, §2

[4] = Stability of SH-11037 in 0.1 M phosphate buffer (pH 7.4); assay type: physicochemical
Procedure: (§3) SH-11037 (1 μM) was incubated in triplicate in 0.1 M phosphate buffer (pH 7.4) or in mouse, dog, and human plasma to investigate its stability. SH-11037 (40 μM) in 50 vol% aqueous CH3CN was mixed with 0.1 M phosphate buffer (pH 7.4) or plasma diluted 3-fold with 0.1 M phosphate buffer (pH 7.4) to a final volume of 160 μL and a final concentration of 1 μM. The resulting solutions were then incubated at 37 °C in a shaking water bath. The incubations were terminated at selected times by adding 160 µL of ice-cold CH3CN containing glipizide (500 ng/mL) as the internal standard (IS). The resulting mixture was vortexed, sonicated, and centrifuged at 3000× g for 20 min. Aliquots of the supernatant were subjected to LC-MS/MS analysis described below in Section 2.6.2.
(§4) The LC-MS/MS system consisted of Agilent 1290 Infinity HPLC system and Agilent 6530 Accurate-Mass Quadrupole Time-of-Flight (Q-TOF) mass spectrometer equipped with dual AJS ESI ion source (Agilent Technologies Korea, Seoul, Korea). Chromatographic separation was performed on an Agilent Eclipse Plus C18 column (2.1 × 100 mm, 3.5 μm) with a Phenomenex Security Guard C18 guard column (4 × 20 mm) maintained at 40 °C. The mobile phase consisted of 0.1% formic acid in deionized water (A) and 0.1% formic acid in CH3CN (B): 0~2 min 5% B, 2~7 min to 95% B, and 7~10 min 95% B. Total run time including a 5 min equilibration time was 15 min. […]

[5] = Stability of SH-11037 in dog plasma; assay type: in vitro ADME; conditions: beagle, pH 7.4, SH-11037 1 µM, 37 °C, read-out: half-life (t1/2) of hydrolysis to SH-11008
Procedure: as §3, §4

[6] = Stability of SH-11037 in mouse plasma; assay type: in vitro ADME; conditions: ICR, pH 7.4, SH-11037 1 µM, 37 °C, read-out: half-life (t1/2) of hydrolysis to SH-11008
Procedure: as §3, §4

[7] = Metabolic stability of SH-11008 in human liver S9 fractions; assay type: in vitro ADME
Procedure: For studies using NADPH or PAPS as a cofactor, 4 μL of SH-11008 (40 μM) solution in 40 vol% CH3CN were mixed with 40 μL of 4 mg protein/mL HLS9 or MLS9 fractions diluted in 0.1 M potassium phosphate buffer (pH 7.4) and 100 μL of 0.1 M potassium phosphate buffer (pH 7.4). When using UDPGA as a cofactor, 32 μL of UGT Reaction Mix Solution B and 68 μL of de-ionized water were used instead of 100 μL of 0.1 M potassium phosphate buffer (pH 7.4). The mixture was warmed at 37 °C for 5 min. The reaction was then initiated by adding 16 μL of 10 mM cofactor dissolved in de-ionized water. The assay condition for UDPGA was used for metabolic stability studies conducted with a mixture of the three cofactors. The reaction was terminated at selected times by adding 160 μL of ice-cold CH3CN containing glipizide (500 ng/mL) as the IS. The resulting mixture was vortexed, sonicated, and centrifuged at 3000× g for 20 min. Aliquots of the supernatant were subjected to LC-MS/MS analysis described below in Section 2.6.2.
as §2
Pharmacokinetic parameters were calculated by noncompartmental analysis of plasma concentration versus time profiles using PKSolver. The scaling factors of mice and human, half-life (t1/2), intrinsic clearance (CLint), hepatic clearance (CLH), and hepatic extraction ratio (EH) were from the in vitro studies as described previously. […] The fraction of parent drug converted to the metabolite (fm) was calculated as follows:fm (%) = (AUC(m) × CL(m))/D × MWparent/MWmetabolite × 100,(1) where D is dose of the parent drug, AUC(m) is area under the curve for the metabolite after a dose of parent drug, CL(m) is CL of metabolite, and MW is molecular weight.

metabolic stability in the presence of NADPH ([7]; HLS9, NADPH 1 mM only, 30 min)	half-life at 1 µM ([7]; human, liver S9 fractions, SH-11008 1 µM, HLS9 1 mg protein/mL, mixture of NADPH, UDPGA and PAPS (1 mM), 37 °C) [s]	EH ([7]; human, predicted hepatic extraction ratio from HLS9 data)	CLH ([7]; human, predicted with the well-stirred model from HLS9 data) [L/h/kg]	CLint scaled at 1 µM ([7]; liver S9 fractions, human, scaled from in vitro t1/2 in HLS9) [L/h/kg]	SMILES	SH-11008 Formation (%), % of SH-11037 converted to SH-11008 [1] [%]	SH-11037 converted to SH-11008 [2]	SH-11008 Formation (%), % of SH-11037 converted to SH-11008 [3] [%]	SH-11037 remaining ([4]; 1 µM, 0.1 M phosphate buffer pH 7.4, 1 h incubation at 37 °C) [%]	SH-11008 formation in buffer ([4]; SH-11037 1 µM, pH 7.4 buffer, 1 h at 37 °C)	half-life at 1 µM [5] [h]	half-life at 1 µM [6] [s]
					COc1ccc(CC2COc3cc(OC)c(OC)c(OC)c3C2=O)cc1OC(=O)[C@H](Cc1ccccc1)NC(=O)OC(C)(C)C (stereo partly drawn) [SH-11037]	98.3 ± 2.8	~ 90%	91.7 ± 1.2	~100	not detected	1.15	1.08
stable	36	0.99	1.19	215	COc1ccc(CC2COc3cc(OC)c(OC)c(OC)c3C2=O)cc1O (stereo not drawn) [SH-11008]							
